These results are taken from US20090181904A1, “METHOD FOR REGULATING NUTRIENT ABSORPTION WITH GINSENOSIDES” (priority 2005, published 2009).

The structures appear in SMILES notation.

One data set relates to Caco2 cells. In words: Cell viability assay (CCK-8). The class given is cell-based, human. Conditions: 10 μM and 50 μM, culture medium containing 1% FBS, 5 days. The method, then:
In order to investigate whether the purified ginsenosides were toxic to the Caco2 cells, a cell viability assay was carried out using culture medium supplemented with 1% and 10% FBS, respectively. The cells were seeded at a concentration of 5000 cells/well in a 96-well plate. To eliminate the boundary effect of the cell growth, the cells were only seeded in 60 wells of the middle area of the plate, whereas 36 wells at the surrounding area of the plate were filled only with 100 μL of PBS. Once the cells were attached to the plate, the cells were incubated in medium containing the purified ginsenosides at various concentrations (0, 0.1, 1, 10 and 50 μM). […]
The cell viability was determined by a Cell Counting Kit-8 (CCK-8, Dojindo Laboratories, Kumamoto, Japan) assay that was based on redox reaction of NADH in the living cells with cell proliferation reagent WST-8. […] Therefore, a greater light absorbance detected by ELISA reader at wavelength of 450 nm indicated presence of a larger number of the living cells.
The CCK-8 assay was carried out by adding 10 μL of the CCK-8 reagent in each well of a 96-format plate. The plate was then covered with aluminum foil and further incubated for two hours before measuring for absorbance at wavelengths of 450 nm using an ELISA reader.

A further data set concerns Caco-2 cell monolayer. In words: Arginine absorption assay (transport across Caco-2 monolayer, 3H-arginine). The class given is cell-based, human. Conditions: for Transport rate (arginine): 10 mM L-arginine. The method, then:
In measuring transport of arginine across the Caco-2 cell monolayer, both sides of the transwells were washed with arginine incubation buffer consisting of: 137 mM NaCl, 10 mM Hepes, 0.3 mM NaH2PO4, 0.3 mM K2HPO4, 5.4 mM KCl, 2.8 mM CaCl2, 1 mM MgSO4, 10 mM glucose, adjusted to pH 7.4. Then, the cell layer was pre-incubated in the incubation buffer at 37° C. for 1 h. The volumes of incubation buffer were 0.2 mL and 0.9 mL in the apical and basolateral chambers, respectively. The cells were replaced with fresh incubation medium in both chambers prior to the transport experiment. The transport experiment was initiated by replacing the incubation solution on the apical side with solution containing 10 mM of L-arginine in which 0.125 μCi/mL of L-[^3H]-arginine was included. At designated time intervals, 10 μL-solution samples were removed from the basolateral side and radioactivity of each sample was counted using a microplate liquid scintillation counter (TopCount, Packard NXT). During the experiment, when a 10 μL-solution sample was removed from the basolateral side every time, 10 μL buffer was supplemented to keep the volume constant. The uptake of [^3H]-mannitol was used to correct for nonspecific transport of molecules across the monolayer membrane. Results were expressed as the nanomoles of arginine transport across the Caco-2 cell monolayers with respect to time in minutes (nmol/min).
(Caco-2 monolayers are a common model of the intestinal barrier.)

Take `CC(C)=CCC[C@](C)(O[C@@H]1O[C@H](CO)[C@@H](O)[C@H](O)[C@H]1O)[C@H]1CC[C@]2(C)[C@@H]1[C@H](O)C[C@@H]1[C@@]3(C)CC[C@H](O)C(C)(C)[C@@H]3[C@@H](O[C@@H]3O[C@H](CO)[C@@H](O)[C@H](O)[C@H]3O)C[C@]12C` [Rg1, ginsenoside Rg1]: in the data set on Caco2 cells, the “cytotoxicity to Caco2 cells (cell viability)” value is on record as “exhibited cytotoxicity”. Also, the results for the “Percentage (arginine transport, control = 100)” value in the data set on Caco-2 cell monolayer (compound 0.01 μM), in the data set with Caco-2 cell monolayer (compound 0.1 μM) and in the data set with Caco-2 cell monolayer (compound 1 μM) were 126.89%, 210.91% and 171.51%, respectively. Also, the “Transport rate (arginine)” value is reported as 13.5583 ± 1.1940 nmol/min in the data set on Caco-2 cell monolayer (compound 0.01 μM), 22.5370 ± 0.8912 nmol/min in the data set on Caco-2 cell monolayer (compound 0.1 μM) and 18.3265 ± 0.8965 nmol/min with Caco-2 cell monolayer (compound 1 μM).
